Earlier results as cited in patent US20210187081A1, “FORMULATIONS AND DOSES OF PEGYLATED URICASE” (Selecta Biosciences, Inc., priority 2019, published 2021).
Like-named read-outs stand apart in the source and are kept apart here.

Tests used:
[1] = tested on: Patients with Hyperuricemia and Gout; details: for Subjects who required treatment for at least one gout flare: first 8 weeks, with gout flare prophylaxis
[2] = tested on: patients with gout with an inadequate response to allopurinol; details: for Patients with gout flares requiring treatment in a month: colchicine prophylaxis

SMILES | Flares per patient month (flare frequency) ([1]; 80 mg/day) [flares per patient month] | Subjects who required treatment for at least one gout flare ([1]; 80 mg/day) | Flares per patient month (flare frequency) ([1]; 80 mg/day, listed as febuxostat) | Flares per patient month (flare frequency) ([1]; 120 mg/day) [flares per patient month] | Subjects who required treatment for at least one gout flare ([1]; 120 mg/day) | Flares per patient month (flare frequency) ([1]; 120 mg/day, listed as febuxostat) [flares per patient month] | Patients with gout flares requiring treatment in a month ([2]; 200 mg daily) | Flares per patient month (flare frequency) ([2]; 200 mg/day) [flares per patient month] | Time of efficacy (area under curve of mean sUA levels over time) ([2]; 200 mg/day) | Patients with gout flares requiring treatment in a month ([2]; 400 mg daily) | Flares per patient month (flare frequency) ([2]; 400 mg/day) [flares per patient month] | Time of efficacy (area under curve of mean sUA levels over time) ([2]; 400 mg/day) | Patients with gout flares requiring treatment in a month ([2]; 600 mg daily) | Flares per patient month (flare frequency) ([2]; 600 mg/day) [flares per patient month] | Time of efficacy (area under curve of mean sUA levels over time) ([2]; 600 mg/day)
Cc1nc(-c2ccc(OCC(C)C)c(C#N)c2)sc1C(=O)O [Febuxostat, febuxostat] | 0.22 | 55 out of 255 | at least 0.22 flares per patient month | 0.36 | 90 out of 250 | ≥ 0.36 | – | – | – | – | – | – | – | – | –
O=C(O)CSc1nnc(Br)n1-c1ccc(C2CC2)c2ccccc12 [Lesinurad, lesinurad] | – | – | – | – | – | – | 10 out of 46 | 0.22 | 158.5 | 13 out of 42 | 0.31 | 165.8 | 15 out of 48 | 0.31 | 167.5
